Earlier results, collected in patent US6949259B1, “Solid preparations for oral use” (Kyorin Pharmaceutical Co., Ltd., priority 1999, dated 2005).

How the values were obtained:
[1] = Nomura M. et al, Bioorg. Med. Chem. Lett., 9 (1999), 533-538
[2] = Nomura M. et al, Bioorg. Med. Chem. Lett., 9 (1999), 533-538; remark: listed apart in the source

Compound: COc1ccc(CC2SC(=O)NC2=O)cc1C(=O)NCc1ccc(C(F)(F)F)cc1 (racemic) [KRP-297, (±)-5-[(2,4-dioxothiazolidine-5-yl)methyl]-2-methoxy-N-[[4-(trifluoromethyl)phenyl]methyl]-benzamide]
- blood glucose-lowering action [1]: potent blood glucose-lowering action
- lipid-lowering action [2]: lipid-lowering action
